This passage reports Activity results from ChEMBL document CHEMBL1743141, “Membrane transporters in drug development” (Nat Rev Drug Discov, 2010).

Holding throughout (type): ADME
The target in data set [1] is T1, Solute carrier family 22 member 2 (Homo sapiens, UniProt O15244).
T1 sequence (O15244 whole entry): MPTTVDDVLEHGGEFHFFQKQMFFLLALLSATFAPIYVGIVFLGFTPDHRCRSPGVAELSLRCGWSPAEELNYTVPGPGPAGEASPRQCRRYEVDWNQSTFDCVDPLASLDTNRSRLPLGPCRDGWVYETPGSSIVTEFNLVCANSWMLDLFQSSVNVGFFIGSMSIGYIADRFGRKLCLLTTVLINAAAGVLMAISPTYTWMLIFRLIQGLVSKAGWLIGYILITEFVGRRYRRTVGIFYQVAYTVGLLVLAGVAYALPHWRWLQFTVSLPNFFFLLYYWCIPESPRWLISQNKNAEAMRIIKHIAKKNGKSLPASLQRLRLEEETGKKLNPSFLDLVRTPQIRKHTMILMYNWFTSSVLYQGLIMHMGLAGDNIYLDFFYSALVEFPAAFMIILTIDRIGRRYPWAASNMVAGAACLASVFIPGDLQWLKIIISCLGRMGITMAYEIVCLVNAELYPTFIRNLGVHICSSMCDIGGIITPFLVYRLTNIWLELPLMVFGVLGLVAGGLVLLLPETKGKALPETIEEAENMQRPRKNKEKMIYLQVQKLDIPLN
The data set can be described thus: Inhibitors of transporters of clinical importance in the absorption and disposition of drugs, OCT2.

Data set [2] addresses T2, Solute carrier family 22 member 1 (Homo sapiens, UniProt O15245).
T2 sequence (O15245 whole entry): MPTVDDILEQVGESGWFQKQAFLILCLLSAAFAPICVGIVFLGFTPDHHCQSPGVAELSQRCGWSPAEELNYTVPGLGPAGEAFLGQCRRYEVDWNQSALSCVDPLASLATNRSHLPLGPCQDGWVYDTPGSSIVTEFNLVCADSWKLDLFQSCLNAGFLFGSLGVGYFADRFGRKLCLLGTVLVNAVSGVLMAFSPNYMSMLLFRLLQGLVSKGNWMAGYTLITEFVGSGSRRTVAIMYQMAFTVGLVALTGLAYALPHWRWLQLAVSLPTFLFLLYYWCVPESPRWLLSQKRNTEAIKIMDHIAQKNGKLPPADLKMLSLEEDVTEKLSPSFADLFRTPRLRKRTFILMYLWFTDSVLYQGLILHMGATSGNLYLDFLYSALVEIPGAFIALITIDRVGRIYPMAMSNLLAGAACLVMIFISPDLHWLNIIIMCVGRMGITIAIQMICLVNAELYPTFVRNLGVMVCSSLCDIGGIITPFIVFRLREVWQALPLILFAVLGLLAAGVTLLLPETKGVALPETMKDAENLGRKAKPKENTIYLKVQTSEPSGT
As to the kind of experiment: Substrates of transporters of clinical importance in the absorption and disposition of drugs, OCT1.

In data set [3] the target is T3, Multidrug and toxin extrusion protein 1 (Homo sapiens, UniProt Q96FL8).
T3 sequence (Q96FL8 whole entry): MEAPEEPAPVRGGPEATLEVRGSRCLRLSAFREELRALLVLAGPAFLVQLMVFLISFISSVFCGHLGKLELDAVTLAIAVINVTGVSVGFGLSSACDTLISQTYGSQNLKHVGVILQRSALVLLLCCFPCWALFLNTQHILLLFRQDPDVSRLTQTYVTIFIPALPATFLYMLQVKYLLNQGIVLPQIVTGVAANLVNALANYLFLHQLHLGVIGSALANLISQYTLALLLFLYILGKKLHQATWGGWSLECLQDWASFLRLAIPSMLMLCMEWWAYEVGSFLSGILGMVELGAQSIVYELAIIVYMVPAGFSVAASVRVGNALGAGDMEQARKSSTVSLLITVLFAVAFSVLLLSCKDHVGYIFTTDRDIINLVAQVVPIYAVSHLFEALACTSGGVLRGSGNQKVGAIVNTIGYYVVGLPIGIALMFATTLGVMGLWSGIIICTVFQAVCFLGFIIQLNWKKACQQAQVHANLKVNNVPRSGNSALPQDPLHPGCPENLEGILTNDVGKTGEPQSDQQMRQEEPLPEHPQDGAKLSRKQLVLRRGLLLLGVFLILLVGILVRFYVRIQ
As to the kind of experiment: Substrates of transporters of clinical importance in the absorption and disposition of drugs, MATE1.

The target in data set [4] is T4, Multidrug and toxin extrusion protein 2 (Homo sapiens, UniProt Q86VL8).
T4 sequence (Q86VL8 whole entry): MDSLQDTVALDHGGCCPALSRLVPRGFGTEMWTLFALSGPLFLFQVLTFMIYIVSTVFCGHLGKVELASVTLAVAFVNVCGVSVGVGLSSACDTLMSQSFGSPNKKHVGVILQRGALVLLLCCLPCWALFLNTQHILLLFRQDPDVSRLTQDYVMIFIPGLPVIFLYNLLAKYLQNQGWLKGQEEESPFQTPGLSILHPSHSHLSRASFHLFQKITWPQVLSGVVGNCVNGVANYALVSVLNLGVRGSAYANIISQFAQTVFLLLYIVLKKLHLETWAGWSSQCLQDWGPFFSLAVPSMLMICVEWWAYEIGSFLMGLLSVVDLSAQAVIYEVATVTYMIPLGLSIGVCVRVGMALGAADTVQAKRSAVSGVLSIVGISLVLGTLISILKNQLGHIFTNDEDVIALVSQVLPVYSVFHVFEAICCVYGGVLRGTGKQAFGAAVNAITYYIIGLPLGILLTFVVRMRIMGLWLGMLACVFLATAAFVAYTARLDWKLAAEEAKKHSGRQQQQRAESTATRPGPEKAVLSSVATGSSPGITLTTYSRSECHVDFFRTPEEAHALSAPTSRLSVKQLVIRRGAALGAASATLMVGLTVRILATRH
As to the kind of experiment: Substrates of transporters of clinical importance in the absorption and disposition of drugs, MATE2-K.

Data set [5] deals with T1, Solute carrier family 22 member 2. The data set can be described thus: Substrates of transporters of clinical importance in the absorption and disposition of drugs, OCT2.
The target of data set [6] is T5, Solute carrier organic anion transporter family member 1A2 (Homo sapiens, UniProt P46721).
T5 sequence (P46721 whole entry): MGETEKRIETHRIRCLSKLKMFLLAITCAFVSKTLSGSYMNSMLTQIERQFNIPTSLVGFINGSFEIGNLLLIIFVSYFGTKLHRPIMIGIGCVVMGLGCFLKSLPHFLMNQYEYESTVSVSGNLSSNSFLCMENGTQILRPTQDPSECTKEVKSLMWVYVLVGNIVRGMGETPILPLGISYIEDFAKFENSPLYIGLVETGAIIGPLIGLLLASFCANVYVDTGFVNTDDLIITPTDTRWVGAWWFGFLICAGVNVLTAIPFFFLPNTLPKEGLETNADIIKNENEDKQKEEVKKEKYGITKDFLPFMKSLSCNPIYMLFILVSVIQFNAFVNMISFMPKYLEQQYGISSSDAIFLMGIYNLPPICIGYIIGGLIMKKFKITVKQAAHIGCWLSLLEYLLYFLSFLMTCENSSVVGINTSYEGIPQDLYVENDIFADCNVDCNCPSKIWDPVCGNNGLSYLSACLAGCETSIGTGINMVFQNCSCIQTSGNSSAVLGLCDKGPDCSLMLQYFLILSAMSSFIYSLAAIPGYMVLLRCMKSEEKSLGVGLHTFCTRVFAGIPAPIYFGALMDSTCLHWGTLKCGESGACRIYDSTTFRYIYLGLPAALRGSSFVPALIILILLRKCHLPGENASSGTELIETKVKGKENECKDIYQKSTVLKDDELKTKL
The data set can be described thus: Inhibitors of transporters of clinical importance in the absorption and disposition of drugs, OATP1A2.

In the case of `C[C@]12CC[C@H]3[C@@H](CCC4=CC(=O)CC[C@@]43C)[C@@H]1CC[C@@H]2O` [TESTOSTERONE], the Activity entry in data set [1] is given as “transporter inhibitor”.
On to `CN(C)C(=N)N=C(N)N` [METFORMIN], for which the Activity entry in data set [2], in data set [3], in data set [4] and in data set [5] was “transporter substrate” each time.
Take `C[C@@H]1O[C@@H](O[C@H]2[C@H](Oc3cc(O)c4c(c3)O[C@H](c3ccc(O)cc3)CC4=O)O[C@H](CO)[C@@H](O)[C@@H]2O)[C@H](O)[C@H](O)[C@H]1O` [NARINGIN]: the Activity result in data set [6] is on record as “transporter inhibitor”.
With `CC[N+](CC)(CC)CC` [TETRYLAMMONIUM], the Activity result in data set [2], in data set [3], in data set [4] and in data set [5] was “transporter substrate” each time.
Turning to `C[n+]1ccccc1`, the Activity result in data set [2], in data set [3], in data set [4] and in data set [5] was “transporter substrate” throughout.
